Measured values: patent publication US20050245463A1, “Novel antiretroviral sulfolipids extracted from spirulinae, method for obtaining same, compositions containing same and use thereof as inhibitors of the hiv virus reverse transcriptase” (priority 2002, published 2005)
≈ marks a conversion by molar mass, not a printed value.

How the values were obtained:
Assay type in all cases: biochemical
[1] = target: T1, RNase-H of HIV-1 reverse transcriptase (Human immunodeficiency virus type 1 group M subtype B, UniProt P03366); assay: Inhibition of the RNase-H of HIV-1 reverse transcriptase; conditions: for RNase-H % of initial enzymatic activity: 100 μM of each sulfolipid molecular species, residual activity as % of control without inhibitor; for inhibition of the RNase-H of HIV-1 reverse transcriptase (in words): ranking among molecular species
T1 construct: The HIV-1 and HIV-2 reverse transcriptases are the hetero-dimers p.66/p.5 l and p.68/p.55, respectively; made in house; host or cells: E. coli
Experimental: (§1) The reverse transcriptases used in this study are the recombinant enzymes expressed in E. coli and purified from the bacterial extracts (16). The HIV-1 reverse transcriptase expression plasmid originates from the proviral isolate BH-10 (17), while the HIV-2 reverse transcriptase expression plasmid originates from the isolate pRod (18). The HIV-1 and HIV-2 reverse transcriptases are the hetero-dimers p.66/p.5 l and p.68/p.55, respectively.
(§2) The enzymatic tests are performed by the method of Loya et al. (19). The DNA polymerase activity is measured by monitoring the incorporation of […] into the product insoluble in trichloroacetic acid (TCA), in the presence of different concentrations of sulfolipids. The RNase-H activity is measured by measuring the delivery of the TCA-soluble product from the synthetic substrate [^3H]poly(rA)n.poly (dT)n. This substrate is prepared by the procedure of Hizi et al. (1991) (20). In all the inhibition experiments, the enzymes are preincubated for 5 min at 30° C. in the absence or presence of inhibitors at different concentrations. The enzymatic reactions are started by the addition of appropriate substrate at 37° C. for 30 min.
(§3) The residual enzymatic activity is calculated relative to the initial rates of the (linear) reaction observed in the absence of sulfolipids.
(b) One unit of RNase-H activity is the amount of enzyme which catalyzes the hydrolysis of one pmol of AMP at 37° C. over 30 min under standard test conditions.

[2] = target: T2, DNA polymerase of HIV-1 reverse transcriptase (Human immunodeficiency virus type 1 group M subtype B, UniProt P03366); assay: Inhibition of the DNA polymerase of HIV-1 reverse transcriptase; conditions: for IC50: concentration that inhibits 50% of the initial enzymatic activity; for IC90: concentration that inhibits 90% of the initial enzymatic activity; for inhibitory activity towards the DNA polymerase of HIV-1 reverse transcriptase (in words): ranking among molecular species
T2 construct: The HIV-1 and HIV-2 reverse transcriptases are the hetero-dimers p.66/p.5 l and p.68/p.55, respectively; made in house; host or cells: E. coli
Experimental: as §1, §2, §3
The concentration of inhibitors that leads to 50% inhibition of the enzymatic activities (IC50) is calculated from the curves of inhibition as a function of inhibitor (sulfolipid) concentration.
(§4) (a) One unit of DNA polymerase activity is the amount of enzyme which catalyzes the incorporation of one pmol of dNTP into the DNA product at 37° C. over 30 min under standard test conditions.

[3] = target: T3, DNA polymerase activity of HIV-2 reverse transcriptase (Human immunodeficiency virus type 2 subtype A, UniProt P04584); assay: DNA polymerase activity of HIV-2 reverse transcriptase
T3 construct: The HIV-1 and HIV-2 reverse transcriptases are the hetero-dimers p.66/p.5 l and p.68/p.55, respectively; made in house; host or cells: E. coli
T3 sequence (P04584 613-1051): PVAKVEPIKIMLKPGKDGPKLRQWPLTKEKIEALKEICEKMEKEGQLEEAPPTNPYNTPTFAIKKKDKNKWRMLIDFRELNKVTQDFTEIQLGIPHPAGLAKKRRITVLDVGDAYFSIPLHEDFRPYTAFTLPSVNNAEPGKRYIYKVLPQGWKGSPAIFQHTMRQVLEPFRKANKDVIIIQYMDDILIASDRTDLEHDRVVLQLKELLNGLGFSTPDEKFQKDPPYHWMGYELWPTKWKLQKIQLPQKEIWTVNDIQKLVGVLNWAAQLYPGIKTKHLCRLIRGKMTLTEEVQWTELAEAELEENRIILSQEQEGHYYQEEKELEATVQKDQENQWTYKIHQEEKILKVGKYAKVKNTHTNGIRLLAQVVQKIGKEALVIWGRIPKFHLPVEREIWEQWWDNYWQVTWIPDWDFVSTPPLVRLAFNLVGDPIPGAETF
T3 sequence (P04584 613-1171): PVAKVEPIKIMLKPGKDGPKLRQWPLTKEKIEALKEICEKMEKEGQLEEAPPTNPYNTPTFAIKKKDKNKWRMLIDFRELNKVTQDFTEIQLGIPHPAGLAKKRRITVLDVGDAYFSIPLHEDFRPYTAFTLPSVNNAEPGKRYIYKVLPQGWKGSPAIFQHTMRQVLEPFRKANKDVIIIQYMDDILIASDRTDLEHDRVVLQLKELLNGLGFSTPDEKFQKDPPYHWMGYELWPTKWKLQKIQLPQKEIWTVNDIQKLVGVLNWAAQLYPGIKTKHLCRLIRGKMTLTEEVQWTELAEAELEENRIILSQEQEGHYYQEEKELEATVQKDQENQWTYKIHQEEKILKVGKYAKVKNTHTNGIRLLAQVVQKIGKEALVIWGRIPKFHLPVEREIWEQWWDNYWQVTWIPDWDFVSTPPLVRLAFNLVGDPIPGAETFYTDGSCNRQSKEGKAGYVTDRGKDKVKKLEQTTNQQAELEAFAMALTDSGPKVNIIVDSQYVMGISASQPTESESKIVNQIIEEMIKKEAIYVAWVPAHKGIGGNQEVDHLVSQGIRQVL
Experimental: as §1, §2, §3, §4

| SMILES | RNase-H % of initial enzymatic activity [1] | inhibition of the RNase-H of HIV-1 reverse transcriptase (in words) [1] | IC50 [2] [µM] | IC90 [2] [µg/mL] | inhibitory activity towards the DNA polymerase of HIV-1 reverse transcriptase (in words) [2] | inhibitory activity towards the DNA polymerase activity of HIV-2 reverse transcriptase (in words) [3] | also measured |
| --- | --- | --- | --- | --- | --- | --- | --- |
| CCCCCCCCCCCCCCCC(=O)OCC(COC1OC(CS(=O)(=O)O)C(O)C(O)C1O)OC(=O)CCCCCCCCCCCCCCC (stereo not shown) [C16:0/C16:0] | 47 + 4% | highest activities | 133 | 452 (≈ 568 µM) |  |  |  |
| CCCCCCC=CCCCCCCCC(=O)OCC(COC1OC(CS(=O)(=O)O)C(O)C(O)C1O)OC(=O)CCCCCCCCCCCCCCC (stereo not shown) [C16:1/C16:0] | 42 + 3% | highest activities | 110 | 302 (≈ 381 µM) |  |  | Residual enzymatic activity (%) ([3]; 10.2 + 0.5 μg/ml): 100 + 1%; Residual enzymatic activity (%) ([3]; 25.0 + 0.6 μg/ml): 96 + 1%; Residual enzymatic activity (%) ([3]; 48.9 + 0.9 μg/ml): 69 + 1%; Residual enzymatic activity (%) ([3]; 97.5 + 1.5 μg/ml): 58 + 2%; Residual enzymatic activity (%) ([3]; 108.0 + 3.0 μg/ml): 50 + 1%; Residual enzymatic activity (%) ([3]; 198.5 + 3.4 μg/ml): 24 + 2% |
| CCCCCCCCC=CCCCCCCCC(=O)OCC(COC1OC(CS(=O)(=O)O)C(O)C(O)C1O)OC(=O)CCCCCCCCCCCCCCC (stereo not shown) [C18:1/C16:0] | 64 + 6% | highest activities | 29.1 | 73.6 (≈ 89.6 µM) | highest activities | have an inhibitory activity | Residual enzymatic activity (%) ([3]; 4.8 + 0.9 μg/ml): 100 + 1%; Residual enzymatic activity (%) ([3]; 9.6 + 0.9 μg/ml): 93 + 2%; Residual enzymatic activity (%) ([3]; 19.1 + 0.9 μg/ml): 74 + 2%; Residual enzymatic activity (%) ([3]; 33.5 + 2.0 μg/ml): 50 + 1%; Residual enzymatic activity (%) ([3]; 38.3 + 1.8 μg/ml): 42 + 2%; Residual enzymatic activity (%) ([3]; 76.5 + 2.0 μg/ml): 24 + 2% |
| CCCCCCCCC=CCCCCCCCC(=O)OCC(COC1OC(CS(=O)(=O)O)C(O)C(O)C1O)OC(=O)CCCCCCCC=CCCCCCCCC (stereo not shown) [C18:1/C18:1] | 60 + 2% | highest activities | 23.7 | 68.3 (≈ 80.6 µM) | highest activities | the highest | Residual enzymatic activity (%) ([3]; 4.0 + 0.5 μg/ml): 100 + 1%; Residual enzymatic activity (%) ([3]; 8.0 + 0.6 μg/ml): 92 + 1%; Residual enzymatic activity (%) ([3]; 16.0 + 0.7 μg/ml): 70 + 2%; Residual enzymatic activity (%) ([3]; 26.1 + 1.8 μg/ml): 50 + 1%; Residual enzymatic activity (%) ([3]; 36.0 + 1.0 μg/ml): 35 + 1%; Residual enzymatic activity (%) ([3]; 71.9 + 1.0 μg/ml): 22 + 2% |
| CCCCCC=CCC=CCCCCCCCC(=O)OC(COC(=O)CCCCCCCC=CCCCCCCCC)COC1OC(CS(=O)(=O)O)C(O)C(O)C1O (stereo not shown) [C18:1/C18:2] | 100% |  | 248 | 628 (≈ 743 µM) |  |  |  |
| CCCCCC=CCC=CCCCCCCCC(=O)OCC(COC1OC(CS(=O)(=O)O)C(O)C(O)C1O)OC(=O)CCCCCCCCCCCCCCC (stereo not shown) [C18:2/C16:0] | 100% |  | 92 | 281 (≈ 344 µM) | highest activities | have an inhibitory activity | Residual enzymatic activity (%) ([3]; 9.5 + 0.9 μg/ml): 100 + 1%; Residual enzymatic activity (%) ([3]; 23.8 + 0.9 μg/ml): 96 + 2%; Residual enzymatic activity (%) ([3]; 47.7 + 1.8 μg/ml): 70 + 2%; Residual enzymatic activity (%) ([3]; 95.4 + 2.0 μg/ml): 56 + 2%; Residual enzymatic activity (%) ([3]; 105.0 + 5.0 μg/ml): 50 + 1%; Residual enzymatic activity (%) ([3]; 190.8 + 4.8 μg/ml): 25 + 2% |
| CCCCCC=CCC=CCCCCCCCC(=O)OCC(COC1OC(CS(=O)(=O)O)C(O)C(O)C1O)OC(=O)CCCCCCCC=CCCCCCCCC (stereo not shown) [C18:2/C18:1] | 100% |  | 297 | 753 (≈ 891 µM) |  |  |  |
| CCCCCC=CCC=CCCCCCCCC(=O)OCC(COC1OC(CS(=O)(=O)O)C(O)C(O)C1O)OC(=O)CCCCCCCC=CCC=CCCCCC (stereo not shown) [C18:2/C18:2] | 100% |  | 331 | 840 (≈ 996 µM) |  |  |  |
| CCCCCC=CCC=CCC=CCCCCC(=O)OCC(COC1OC(CS(=O)(=O)O)C(O)C(O)C1O)OC(=O)CCCCCCCCCCCCCCC (stereo not shown) [γC18:3/C16:0] | 100% |  | 218 | 533 (≈ 652 µM) |  |  |  |
